Data taken from paper PMC11217349, “Development of Nurr1 agonists from amodiaquine by scaffold hopping and fragment growing” (Communications Chemistry, 2024).
In brackets after ≈: the same amount, converted by molar mass. Several values for one entry are separate records, joined by “and”; a condition that tells them apart may be missing. Identical values can stand only once. Entries after “also recorded” stand apart in the source; their conditions may differ. Like-named read-outs stand apart in the source and are kept apart here.

How the values were obtained:
HEK293T cells = assay: WST-8 cytotoxicity assay, HEK293T; type: cell-based, human; conditions: for toxicity (WST-8): HEK293T cells, 24 h
Experimental: Each sample was prepared in four biologically independent repeats. After incubation for 24 h, the medium was refreshed and 10% water-soluble tetrazolinum salt (Cell Counting Kit-8, MedChemExpress) was added to assess metabolic activity. After 4 h, absorbance was measured at 450 nm using a Tecan Spark Cyto instrument (Tecan).

NOR-1 = molecular target: T1, NOR-1 (Homo sapiens, UniProt Q92570); assay: Gal4-NOR-1 hybrid reporter gene assay; type: cell-based; conditions: HEK293T
T1 construct: chimeric receptors composed of the Gal4-DBD and the hinge region and LBD; expressed in transfected cells; host or cells: HEK293T
T1 sequence (Q92570 394-623 limits assumed): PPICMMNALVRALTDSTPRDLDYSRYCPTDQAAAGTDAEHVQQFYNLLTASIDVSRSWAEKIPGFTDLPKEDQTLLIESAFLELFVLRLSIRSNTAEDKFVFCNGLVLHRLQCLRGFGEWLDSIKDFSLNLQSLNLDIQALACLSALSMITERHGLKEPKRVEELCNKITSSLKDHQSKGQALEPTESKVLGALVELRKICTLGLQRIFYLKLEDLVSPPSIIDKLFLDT
Experimental: (§1) Nurr1 modulation was determined in a Gal4 hybrid reporter gene assay in HEK293T cells (German Collection of Microorganisms and Cell Culture GmbH, DSMZ) using pFR-Luc (Stratagene, La Jolla, CA, USA; reporter), pRL-SV40 (Promega, Madison, WI, USA; internal control) and pFA-CMV-hNurr1-LBD[14], coding for the hinge region and ligand binding domain of the canonical isoform of human Nurr1. […] After 24 h, the medium was changed to Opti-MEM without supplements, and cells were transiently transfected using Lipofectamine LTX reagent (Invitrogen, Carlsbad, CA, USA) according to the manufacturer’s protocol. Five hours after transfection, cells were incubated with the test compounds in Opti-MEM supplemented with penicillin (100 U/mL), streptomycin (100 μg/mL), and 0.1% DMSO for 16 h before luciferase activity was measured using the Dual-Glo Luciferase Assay System (Promega) according to the manufacturer’s protocol on a Tecan Spark luminometer (Tecan Deutschland GmbH, Crailsheim, Germany). Firefly luminescence was divided by Renilla luminescence and multiplied by 1000 resulting in relative light units (RLU) to normalize for transfection efficiency and cell growth. Fold activation was obtained by dividing the mean RLU of the test compound by the mean RLU of the untreated control. All samples were tested in at least three biologically independent experiments in duplicates. For dose-response curve fitting and calculation of EC50 values, the equation “[Agonist] vs. response -- Variable slope (four parameters)” was used in GraphPad Prism (version 7.00, GraphPad Software, La Jolla, CA, USA). Selectivity profiling was performed with identical procedures using pFA-CMV-Nur77-LBD[14], pFA-CMV-NOR-1-LBD[14], pFA-CMV-THRα-LBD[51], pFA-CMV-RARα-LBD[52], pFA-CMV-PPARα-LBD[53], pFA-CMV-PPARγ-LBD[53], pFA-CMV-PPARδ-LBD[53], pFA-CMV-LXRα-LBD[54], pFA-CMV-FXR-LBD[55] and pFA-CMV-hRXRα-LBD[56].

Nur77 = molecular target: T2, Nur77 (Homo sapiens, UniProt P22736); assay: Gal4-Nur77 hybrid reporter gene assay; type: cell-based; conditions: HEK293T
T2 construct: chimeric receptors composed of the Gal4-DBD and the hinge region and LBD; expressed in transfected cells; host or cells: HEK293T
T2 sequence (P22736 360-595 limits assumed): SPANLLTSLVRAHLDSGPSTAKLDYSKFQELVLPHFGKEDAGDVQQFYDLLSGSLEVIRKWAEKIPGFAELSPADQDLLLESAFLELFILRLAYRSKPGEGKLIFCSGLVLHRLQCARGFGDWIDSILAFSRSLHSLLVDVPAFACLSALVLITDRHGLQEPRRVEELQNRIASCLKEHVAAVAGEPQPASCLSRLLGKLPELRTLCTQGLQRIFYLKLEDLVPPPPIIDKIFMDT
Experimental: as §1

[1] = molecular target: T3, Nurr1-RXR heterodimer (DR5) (Homo sapiens, UniProt P43354); assay: Full-length Nurr1 reporter gene assay (DR5); type: cell-based
T3 construct: The full-length human nuclear receptor Nurr1 (pcDNA3.1-hNurr1-NE; Addgene plasmid #102363); host or cells: HEK293T
T3 sequence (P43354 whole entry): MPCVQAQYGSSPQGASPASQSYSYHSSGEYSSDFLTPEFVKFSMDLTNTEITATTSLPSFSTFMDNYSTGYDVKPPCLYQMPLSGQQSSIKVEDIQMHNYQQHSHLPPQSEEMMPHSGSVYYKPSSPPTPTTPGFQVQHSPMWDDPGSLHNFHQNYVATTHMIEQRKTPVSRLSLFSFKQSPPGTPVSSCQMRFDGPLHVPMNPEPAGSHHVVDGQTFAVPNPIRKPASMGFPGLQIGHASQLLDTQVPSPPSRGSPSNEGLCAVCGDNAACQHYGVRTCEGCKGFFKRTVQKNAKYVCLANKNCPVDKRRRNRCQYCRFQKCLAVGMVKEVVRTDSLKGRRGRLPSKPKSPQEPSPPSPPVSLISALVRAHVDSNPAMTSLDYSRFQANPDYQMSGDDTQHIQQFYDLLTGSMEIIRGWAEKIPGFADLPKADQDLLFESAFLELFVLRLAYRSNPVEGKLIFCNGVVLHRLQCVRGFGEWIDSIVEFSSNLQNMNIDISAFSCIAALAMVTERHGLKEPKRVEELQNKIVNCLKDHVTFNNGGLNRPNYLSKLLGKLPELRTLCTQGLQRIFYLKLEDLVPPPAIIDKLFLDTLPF
T3 sequence (P19793 whole entry partner): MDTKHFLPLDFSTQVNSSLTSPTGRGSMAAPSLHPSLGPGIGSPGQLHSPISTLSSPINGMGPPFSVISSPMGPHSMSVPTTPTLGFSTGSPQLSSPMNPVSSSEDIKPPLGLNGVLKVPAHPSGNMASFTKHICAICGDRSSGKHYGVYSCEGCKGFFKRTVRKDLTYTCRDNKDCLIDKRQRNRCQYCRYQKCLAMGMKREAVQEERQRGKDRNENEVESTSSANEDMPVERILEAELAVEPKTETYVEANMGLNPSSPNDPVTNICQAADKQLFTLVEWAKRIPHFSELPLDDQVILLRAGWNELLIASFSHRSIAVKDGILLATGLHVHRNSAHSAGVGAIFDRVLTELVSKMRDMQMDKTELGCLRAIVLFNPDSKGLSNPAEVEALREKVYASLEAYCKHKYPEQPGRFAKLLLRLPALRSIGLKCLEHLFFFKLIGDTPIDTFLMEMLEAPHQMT
Experimental: Activation of full-length human Nurr1 was studied in transiently transfected HEK293T cells using the reporter plasmids pFR-Luc-NBRE[14], pFR-Luc-POMC[14] or pFR-Luc-DR5[14] each containing one copy of the respective human Nurr1 response element NBRE Nl3, NurRE, or DR5. […] After 24 h, the medium was changed to Opti-MEM without supplements, and cells were transiently transfected using Lipofectamine LTX reagent (Invitrogen) according to the manufacturer’s protocol. Five hours after transfection, cells were incubated with the test compounds in Opti-MEM supplemented with penicillin (100 U/mL), streptomycin (100 μg/mL) and 0.1% DMSO for 16 h before luciferase activity was measured using the Dual-Glo Luciferase Assay System (Promega) according to the manufacturer’s protocol on a Tecan Spark luminometer (Tecan Deutschland GmbH). Firefly luminescence was divided by Renilla luminescence and multiplied by 1000 resulting in relative light units (RLU) to normalize for transfection efficiency and cell growth. Fold activation was obtained by dividing the mean RLU of the test compound by the mean RLU of the untreated control. All samples were tested in at least three biologically independent experiments in duplicates. For dose-response curve fitting and calculation of EC50 values, the equation “[Agonist] vs. response -- Variable slope (four parameters)” was used in GraphPad Prism (version 7.00, GraphPad Software).

[2] = molecular target: T4, human Nurr1 (hinge region and ligand binding domain) (Homo sapiens, UniProt P43354); assay: Gal4-Nurr1 hybrid reporter gene assay; type: cell-based
T4 construct: expressed in transfected cells; host or cells: HEK293T
T4 sequence (P43354 360-595 limits assumed): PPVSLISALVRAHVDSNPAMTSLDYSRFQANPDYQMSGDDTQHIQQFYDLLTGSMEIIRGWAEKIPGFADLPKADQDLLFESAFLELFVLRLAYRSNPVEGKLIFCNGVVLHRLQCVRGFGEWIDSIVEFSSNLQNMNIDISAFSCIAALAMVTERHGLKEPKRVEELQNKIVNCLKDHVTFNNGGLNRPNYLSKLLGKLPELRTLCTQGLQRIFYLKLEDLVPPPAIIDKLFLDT

Aqueous solubility = type: physicochemical; conditions: water, 25 °C, read-out: aq. solubility
Experimental: The mixture was agitated in a VWR Thermal Shake lite (VWR International GmbH, Darmstadt, Germany) for 24 h at 600 rpm and a constant temperature of 25 °C. The supersaturated mixtures were subsequently centrifuged at 23.300 rpm for 15 min (25 °C). Part of the supernatant was taken off for quantification by UV absorbance at 312 nm with external calibration. The external calibration samples contained 1% DMSO and the test samples were spiked with DMSO to 1% concentration right before the measurement. Absorbance was measured with a Tecan Spark luminometer (Tecan Deutschland GmbH, Crailsheim, Germany). The solubility test was repeated in three independent experiments.

| EC50(NOR-1) (NOR-1) | EC50(Nur77) (Nur77) | EC50(DR5) ([1]; Nurr1-RXR heterodimer, HEK293T, without bexarotene) | fold less active than 36 as Nurr1 modulator ([2]; no agonism at 10 µM vs EC50 of 36) | solubility at 24 h (Aqueous solubility) | EC50 (NOR-1) | EC50 (Nur77) | EC50 ([1]; EC50(DR5) [+0.1 µM BEX], Nurr1-RXR heterodimer, in presence of 0.1 µM bexarotene) | factor of potency enhancement by bexarotene (DR5) ([1]; EC50 with 0.1 µM BEX vs without) | EC50 ([1]; Nurr1-RXR heterodimer, HEK293T, without bexarotene, read-out: EC50(DR5)) | EC50 ([2]; Gal4-Nurr1 hybrid reporter, HEK293T, mean ± SD, n ≥ 3, read-out: EC50(Nurr1)) | Structure (SMILES) | toxicity (WST-8) (HEK293T cells) | highest non-toxic concentration ([2]; Gal4-Nurr1 hybrid reporter gene assay, HEK293T) | EC50(Nurr1) ([2]; Gal4-Nurr1 hybrid reporter, HEK293T, mean ± SD, n ≥ 3) | rel. absorbance (450 nm) (HEK293T cells; HEK293T, 10 µM, WST-8, vs DMSO ctrl) |
| --- | --- | --- | --- | --- | --- | --- | --- | --- | --- | --- | --- | --- | --- | --- | --- |
| no activation (10 µM) | no activation (10 µM) | no activation (10 µM) | at least 100 fold | 4.1 µg/mL (≈ 11.7 µM) | – | – | – | – | – | – | Cc1nc2c(Cl)cccn2c1NC(=O)c1ccc(-c2ccccc2)[nH]1 [Compound 29, N-(8-Chloro-2-methylimidazo[1,2-a]pyridin-3-yl)-5-phenyl-1H-pyrrole-2-carboxamide] | inactive (10 µM) | inactive (10 µM^b) | inactive (10 µM^b); also recorded: no activation (10 µM) | – |
| – | – | – | – | 6.8 µg/mL (≈ 17.2 µM) | 110 ± 30 nM | 330 ± 40 nM | 32 nM | > 5 | 165 ± 4 nM | 90 ± 5 nM | Cc1nc2c(Cl)cccn2c1NC(=O)c1ccc(-c2ccc(N(C)C)cc2)o1 [Compound 36, N-(8-Chloro-2-methylimidazo[1,2-a]pyridin-3-yl)-5-(4-(dimethylamino)phenyl)furan-2-carboxamide] | no toxic effect; also recorded: non-toxic; also recorded: inactive (10 µM) | – | – | 85% and 95% and 80% |
